Common to all, as to type: in vivo, mouse
The test system of assay [1] is D2.mdx mice. Nature of the assay: Muscle cytokine mRNA by quantitative PCR. The method, then: (§1) D2.mdx mice were treated with ALY688 at two different dosages; high dose (HD; 15 mg/kg body weight/day) or low dose (LD; 3 mg/kg body weight/day) dissolved in saline. A separate group of mice were treated with saline alone (VEH, vehicle). Treatment was provided via subscapular subcutaneous injections from 7 days of age to 28-30 days. […] At 28-30 days of age, mice were anaesthetized with isoflurane vaporized in medical air (21% oxygen) at a 2 L/min flow rate. Due to tissue limitations in limb muscle, certain measures were performed separately in tibialis anterior and quadriceps across several phases of breeding. Following the treatment protocol, in situ quadriceps force assessments were then performed in one limb followed by removal of the quadriceps from the other limb for mitochondrial assessments, diaphragm for in vitro force assessments and finally other tissues for further processing as described below. Muscle and visceral organs weights were normalized to tibia length. Tissue collected from the first phase were utilized in force, histological, mitochondrial measures (respiration, mH2O2 and calcium retention capacity) and western analyses (diaphragm and quadriceps only). A second phase was then collected and utilized for cytokine profiling, qPCR analyses and additional westerns (TA only). Serum was collected from both phase 1 and 2 and utilized for serum CK analysis. All animals were utilized in in vivo functional assays (grip strength, cage hang time and voluntary wheel running).
Samples were lysed using TRIzol reagent and RNA was separated to aqueous phase using chloroform. The aqueous layer containing RNA was then mixed with isopropanol and loaded to Aurum Total RNA Mini Kit columns (Bio-Rad, Mississauga, ON, Canada). Total RNA was then extracted according to the manufacturer's instructions and concentration was assessed on the nanodrop attachment for the Varioskan LUX Multimode Microplate reader (Thermo Scientific). Reverse transcription of RNA into cDNA was performed by M-MLV reverse transcriptase and oligo (dT) primers (Qiagen). cDNA was then amplified in a CFX384 Touch Real-Time PCR Detection Systems (Bio-Rad) with a SYBR Green master mix and specific primers. Standard curves were created by plotting log DNA concentrations against Ct values from a 1:5 serial dilutions with CFX Manager Software. Gene expression was normalized to a Rplp0 control, and relative differences were determined using the ΔΔCt method Values are presented as fold increases relative to WT group.

Assay [2] concerns D2.mdx mice. Nature of the assay: Western blotting of electron transport chain complex subunits in muscle. The method, then:
as §1
Frozen sections of quadriceps and diaphragm from each muscle (approximately 10-30 mg in size) were homogenized using a plastic microcentrifuge tube with tapered Teflon pestle in ice-cold lysis buffer containing (in mM) (20 Tris/HCl, 150 NaCl, 1 EDTA, 1 EGTA, 1% Triton X-100, 2.5 Na4O7P2, 1 Na3VO4, pH 7.0) supplemented with protease (Sigma) and phosphatase inhibitors (Roche). A 12% gel was used to separate electron transport chain proteins and all other proteins were separated on a 10% gel. Following, all gels were transferred onto 0.2μm low fluorescence PVDF membrane (Bio-Rad, Mississauga, Canada) and blocked with Li-COR Intercept Blocking Buffer (LI-COR, Lincoln NE, USA) for 1 hour. Membranes were then incubated with specific primary antibodies (listed below) overnight at 4° C. A commercially available monoclonal rodent OXPHOS Cocktail (ab110413; Abcam, Cambridge, UK, 1:250 dilution) including V-ATP5A (55 kDa), III-UQCRC2 (48 kDa), IV-MTCO1 (40 kDa), II-SDHB (30 kDa), and I-NDUFB8 (20 kDa) were used to detect electron transport chain proteins. […] Prior to detection, membranes were washed in TBS-T three times for 5 minutes and then imaged using infrared imaging (LI-COR CLx; LI-COR, Lincoln, NE, USA) and quantified by densitometry (ImageJ, http://imagej.nih.gov/ij/). […]

Assay [3] has as its system D2.mdx mice. The assay is described as follows: Fibrosis by Masson's trichrome staining of muscle sections after ALY688 treatment. Here is the method:
(§2) D2.mdx mice were treated with ALY688 at two different dosages; high dose (HD; 15 mg/kg body weight/day) or low dose (LD; 3 mg/kg body weight/day) dissolved in saline. A separate group of mice were treated with saline alone (VEH, vehicle). Treatment was provided via subscapular subcutaneous injections from 7 days of age to 28-30 days. […] At 28-30 days of age, mice were anaesthetized with isoflurane vaporized in medical air (21% oxygen) at a 2 L/min flow rate. Due to tissue limitations in limb muscle, certain measures were performed separately in tibialis anterior and quadriceps across several phases of breeding. […]
(§3) Samples collected were cut into 8 µm thick serial cross sections with a cryostat (Thermo Fisher Scientific; Kalamazoo, MI, United States;) maintained at −20° C. on Fisherbrand Superfrost Plus slides (Thermo Fisher Scientific). […] Centralized nuclei, a marker of regenerating fibres, was analyzed by selecting five evenly spaced images throughout the muscle and averaging the result. Areas of damage (fibres with fragmented sarcoplasm and immune cell infiltration) were expressed as a percentage of the entire muscle section. Images were taken using EVOS M7000 imager (Thermo Fisher Scientific) using 20× magnification and analyzed using ImageJ (http://imagej.nih.gov/ij/). […] These images were then analyzed with ImageJ for minimal Feret's diameter as an index of muscle atrophy.

Assay [4] deals with D2.mdx mice. Nature of the assay: H&E staining, damaged areas of muscle. Here is the method:
as §2, §3

Where no end group is shown, it is not given here. [ ]: non-standard residue; d: D form. Nva = CCC[C@H](N)C(=O)O

The text below walks through data of US20240382564A1, “Methods and Compositions for Treating Muscular Dystrophy and Memory Impairment” (Allysta Pharmaceuticals, Inc., priority 2023, published 2024).

As for [dN]IP[Nva]LY[dS]FA[dS]-NH2 [ALY688], in assay [1] (diaphragm, HD), the “IL-10 mRNA content” value is given as “not different between groups”, the “TGF-β mRNA contents” value was “unchanged in all groups” and the “TNF-α mRNA content” value is recorded as “not different between groups”. Further, in assay [1] (diaphragm, HD vs VEH), the “IL-1β mRNA” value is “not affected by the drug”. The “IL-6 mRNA content” value in assay [1] (diaphragm, HD, increase in VEH attenuated) stood at 51.8 % increase vs WT. The “attenuation of TNF-α mRNA compared to VEH” value in assay [1] (tibialis anterior, HD) is 41.4%. The “complex IV content” value in assay [2] (diaphragm, LD) is given as −27.0 % vs WT. Besides, in assay [2] (diaphragm, disease state groups), the “total sum of electron transport chain complexes” value is recorded as −13.8 to −19.3 % vs WT. For the same substance, the “specific subunits of complex III and V” value in assay [2] (quadriceps and diaphragm, disease state groups (VEH, LD, HD)) is recorded as −14.7 to −31.5 % vs WT. In addition, the “total sum of electron transport chain complexes” value in assay [2] (quadriceps, HD) is given as −29.1 % vs WT. For the same substance, in assay [3] (diaphragm, both doses (LD 3, HD 15 mg/kg/day s.c., 7 to 28-30 days of age)), the “attenuation of diaphragm fibrosis (collagen content)” value is 66.7-67.6%. Also, the “partial prevention of fibrosis and atrophy in tibialis anterior” value in assay [3] (tibialis anterior) is “not observed”. The “damaged areas (H&E)” value in assay [4] (diaphragm, all D2.mdx groups (VEH, LD, HD)) is given as 3.7-to-3.9 fold change vs WT. The “damaged areas (H&E)” value in assay [4] (tibialis anterior, all three D2.mdx groups) is on record as 17.2-to-22.6 fold increase vs WT.
